For experiment [1], the target named is T1, hA3AR (Homo sapiens, UniProt P0DMS8).
T1 construct: expressed in transfected cells; host or cells: CHO cells (CHOhA3AR), gift of Prof; K.N. Klotz, University of Würzburg; used as membrane fractions or live cells
T1 sequence (P0DMS8 1-318): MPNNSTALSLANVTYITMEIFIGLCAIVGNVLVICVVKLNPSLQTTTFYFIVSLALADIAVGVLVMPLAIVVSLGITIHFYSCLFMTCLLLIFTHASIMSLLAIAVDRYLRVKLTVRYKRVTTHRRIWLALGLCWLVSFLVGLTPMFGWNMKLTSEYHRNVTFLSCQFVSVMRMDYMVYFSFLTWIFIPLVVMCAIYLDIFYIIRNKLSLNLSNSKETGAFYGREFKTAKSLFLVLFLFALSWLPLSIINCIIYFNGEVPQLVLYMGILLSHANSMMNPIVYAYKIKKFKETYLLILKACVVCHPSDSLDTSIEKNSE
Put plainly: Single-point radioligand displacement, [3H]PSB-11. The format is binding. The note with it: 1 μM probe; CHO cell membranes; co-incubated with radioligand 30 min at 25 °C; mean of two experiments. The procedure:
(§1) Membrane aliquots containing 15 μg (CHOhA3AR), 5 μg (CHOhA1AR), or 30 μg (HEK293hA2AAR and CHO-spap-A2BAR) of protein were resuspended in assay buffer (A3AR: 50 mM Tris–HCl, pH 8.0, 10 mM MgCl2, 1 mM EDTA, 0.01% CHAPS; A1AR and A2AAR: 50 mM Tris–HCl, pH 7.4; A2BAR: 50 mM Tris–HCl, pH 7.4, 0.1% CHAPS). […] Nonspecific binding was determined in the presence of 100 μM NECA (A3AR), 100 μM CPA (A1AR), 100 μM NECA (A2AAR), and 10 μM ZM241385 (A2BAR). Incubations were terminated by rapid vacuum filtration to separate the bound and free radioligand through prewetted 96-well GF/C filter plates using a PerkinElmer Filtermate harvester. Filters were subsequently washed 12 times with ice-cold wash buffer (A3AR: 50 mM Tris–HCl, pH 8.0, 10 mM MgCl2, 1 mM EDTA; A1AR and A2AAR: 50 mM Tris–HCl, pH 7.4; A2BAR: 50 mM Tris–HCl, pH 7.4, 0.1% BSA). The plates were dried at 55 °C, and MicroscintTM-20 cocktail (PerkinElmer) was added subsequently.
(§2) Single point displacement values shown are mean percentages of two individual experiments performed in duplicate. All pKi values shown are mean values ± SEM of three individual experiments performed in duplicate.

Experiment [2] has as its target T2, human A2BAR (hA2BAR) (Homo sapiens, UniProt P29275).
T2 construct: expressed in transfected cells; host or cells: CHO-spap cells (CHO-spap-hA2BAR), gift of S.J. Dowell, GlaxoSmithKline; membrane fractions
T2 sequence (P29275 1-332): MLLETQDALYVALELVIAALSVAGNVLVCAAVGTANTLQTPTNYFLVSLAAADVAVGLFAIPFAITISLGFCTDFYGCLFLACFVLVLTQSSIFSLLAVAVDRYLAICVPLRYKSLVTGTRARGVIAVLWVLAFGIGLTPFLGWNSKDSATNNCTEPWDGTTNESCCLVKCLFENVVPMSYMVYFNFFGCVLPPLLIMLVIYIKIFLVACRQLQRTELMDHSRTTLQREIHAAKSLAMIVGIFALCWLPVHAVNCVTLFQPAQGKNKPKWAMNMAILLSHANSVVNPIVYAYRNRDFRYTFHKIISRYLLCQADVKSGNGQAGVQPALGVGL
In words: Single-point radioligand displacement, [3H]PSB-603. In kind it is binding. The note with it: 1 μM probe; CHO-spap cell membranes; co-incubated with radioligand 30 min at 25 °C; mean of two experiments. The protocol: as §1, §2
A general note: In a radioligand displacement assay an active substance lowers the binding of a labelled ligand.

Experiment [3] deals with T1, hA3AR. Put plainly: Wash-out assay, [3H]PSB-11 binding after washing. As to conditions: 1 μM compound, pre-incubated 2 h at 25 °C, washed 4 times. The procedure: 200 μL assay buffer (50 mM Tris–HCl, pH 8.0, 10 mM MgCl2, 1 mM EDTA and 0.01% CHAPS), 100 μL assay buffer containing the competing ligand (final concentration: 1 μM), and 100 μL of CHOhA3AR membrane fractions (100 μg protein) were combined and pre-incubated for 2 h at 25 °C while shaking. The ‘4× washed’ samples were centrifuged (5 min, 13,000 rpm, 4 °C), and the supernatant was removed. The resulting pellet was dissolved in 1 mL of assay buffer and incubated for 10 min at 25 °C while shaking. The ‘4× washed’ samples were then again centrifuged (2 min, 13,000 rpm, 4 °C), the supernatant was removed, and the resulting pellet was dissolved in 1 mL of assay buffer. The latter washing steps were repeated two times (four times washing total), and the final pellet was dissolved in 300 μL assay buffer. The radioligand (10 nM [^3H]PSB-11) in 100 μL of assay buffer was added to all samples, and the samples were incubated at 25 °C for 1 h. Nonspecific binding was determined in the presence of 100 μM NECA. Incubations were terminated by addition of 1 mL of ice-cold washing buffer (50 mM Tris–HCl, pH 8.0, 10 mM MgCl2, 1 mM EDTA) and rapid vacuum filtration through prewetted 96-well GF/B filter plates using a Brandel harvester. Filters were subsequently washed 5 times with ice-cold wash buffer. The plates were dried under vacuum, and a MicroscintTM-20 cocktail (PerkinElmer) was added subsequently. After 3 h, the filter-bound radioactivity was determined using a 2450 MicroBeta Microplate Counter (PerkinElmer).

Experiment [4] deals with T3, human A1AR (hA1AR) (Homo sapiens, UniProt P30542).
T3 construct: expressed in transfected cells; host or cells: CHO cells (CHOhA1AR), gift of Prof; S.J. Hill, University of Nottingham; membrane fractions
T3 sequence (P30542 1-326): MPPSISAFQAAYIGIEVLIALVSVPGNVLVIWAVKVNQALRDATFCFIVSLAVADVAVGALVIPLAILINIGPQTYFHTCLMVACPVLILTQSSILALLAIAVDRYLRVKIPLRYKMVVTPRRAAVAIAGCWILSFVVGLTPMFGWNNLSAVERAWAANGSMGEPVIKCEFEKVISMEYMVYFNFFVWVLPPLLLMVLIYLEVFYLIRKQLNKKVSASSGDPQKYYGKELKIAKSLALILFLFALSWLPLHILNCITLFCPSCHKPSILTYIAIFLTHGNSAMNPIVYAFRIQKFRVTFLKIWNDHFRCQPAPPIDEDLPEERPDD
Put plainly: Single-point radioligand displacement, [3H]DPCPX. In kind it is binding. The note with it: 1 μM probe; CHO cell membranes; co-incubated with radioligand 30 min at 25 °C; mean of two experiments. The protocol:
as §1, §2

Experiment [5] concerns the target T4, human A2AAR (hA2AAR) (Homo sapiens, UniProt P29274).
T4 construct: expressed in transfected cells; host or cells: HEK293 cells (HEKhA2AAR), gift of Dr. J. Wang, Biogen; membrane fractions
In words: Single-point radioligand displacement, [3H]ZM241385. In kind it is binding. As to conditions: 1 μM probe; HEK293 cell membranes; co-incubated with radioligand 30 min at 25 °C; mean of two experiments. The procedure:
as §1, §2

T4 sequence (P29274 whole entry): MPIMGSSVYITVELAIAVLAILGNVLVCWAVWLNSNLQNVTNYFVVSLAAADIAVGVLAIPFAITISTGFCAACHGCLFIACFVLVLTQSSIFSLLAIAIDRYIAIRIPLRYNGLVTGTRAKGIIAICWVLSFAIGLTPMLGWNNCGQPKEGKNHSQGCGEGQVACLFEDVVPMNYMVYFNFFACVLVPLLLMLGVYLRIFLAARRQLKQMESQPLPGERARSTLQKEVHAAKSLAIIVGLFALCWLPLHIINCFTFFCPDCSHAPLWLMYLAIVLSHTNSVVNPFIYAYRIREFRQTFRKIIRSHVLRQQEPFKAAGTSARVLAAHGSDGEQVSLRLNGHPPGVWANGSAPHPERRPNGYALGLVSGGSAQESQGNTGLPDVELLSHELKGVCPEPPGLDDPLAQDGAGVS

For `C#CCN(CCCn1c(=O)n(CCC)c(=O)c2c1nc1cc(OC)ccn12)C(=O)c1ccc(S(=O)(=O)F)cc1` [compound 5, 4-((3-(8-Methoxy-2,4-dioxo-3-propyl-3,4-dihydropyrido[2,1-f]purin-1(2H)-yl)propyl)(prop-2-yn-1-yl)carbamoyl)benzenesulfonyl fluoride], in experiment [1], the “% specific [3H]PSB-11 displacement, hA3AR” value is 95%. The “% specific [3H]PSB-603 displacement, hA2BAR” value in experiment [2] was 10%. Besides, in experiment [3], the “binding to hA3AR after wash-out ([3H]PSB-11 binding recovery)” value was “persistent binding”. Further, the “% specific [3H]DPCPX displacement, hA1AR” value in experiment [4] came out at 2%. Also, the “% specific [3H]ZM241385 displacement, hA2AAR” value in experiment [5] came to 0%.

As for `C#CCOc1ccn2c(c1)nc1c2c(=O)n(CCC)c(=O)n1CCCNC(=O)c1ccc(S(=O)(=O)F)cc1` [compound 9, 4-((3-(2,4-Dioxo-8-(prop-2-yn-1-yloxy)-3-propyl-3,4-dihydropyrido[2,1-f]purin-1(2H)-yl)propyl)carbamoyl)benzenesulfonyl fluoride], the “% specific [3H]PSB-11 displacement, hA3AR” value in experiment [1] amounted to 95%. The “% specific [3H]PSB-603 displacement, hA2BAR” value in experiment [2] is given as 1%. Further, the “binding to hA3AR after wash-out ([3H]PSB-11 binding recovery)” value in experiment [3] is given as “persistent binding”. Moreover, the “% specific [3H]DPCPX displacement, hA1AR” value in experiment [4] is given as 21%. For the same molecule, the “% specific [3H]ZM241385 displacement, hA2AAR” value in experiment [5] came out at 7%.

These data come from PMC10461224, “Development of an Affinity-Based Probe to Profile Endogenous Human Adenosine A3 Receptor Expression” (Journal of Medicinal Chemistry, 2023).
